These results are taken from patent US9365522B2, “Pyrazole amide derivative” (AMGEN INC., priority 2015, dated 2016).

For the assay, the target named is T1, human RORγ-LBD (Homo sapiens, UniProt P51449).
T1 construct: made in house; host or cells: E. coli (BL-21)
T1 sequence (P51449 262-518): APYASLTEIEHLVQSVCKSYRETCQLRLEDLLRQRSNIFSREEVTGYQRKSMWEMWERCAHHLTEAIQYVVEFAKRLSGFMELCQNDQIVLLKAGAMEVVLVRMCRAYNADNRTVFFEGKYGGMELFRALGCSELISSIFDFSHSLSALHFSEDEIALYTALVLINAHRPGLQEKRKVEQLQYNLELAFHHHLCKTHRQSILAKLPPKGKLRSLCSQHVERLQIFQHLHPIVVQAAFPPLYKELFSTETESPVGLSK
Kind of assay: ROR gamma coactivator peptide recruitment Alphascreen assay (RORγ-LBD binding to GRIP1 coactivator peptide). The format is biochemical. The settings on record: 5 nM human RORγ-LBD, 30 nM 7-β-hydroxycholesterol, 50 nM biotinylated GRIP1 coactivator peptide, overnight incubation at room temperature; read-out: result (pIC50, RORγ coactivator peptide recruitment Alphascreen assay) (converted). The method in brief: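 Alphascreen proximity read-out after overnight room-temperature incubation, yielding pIC50 from 1-in-2 compound series (2.5% DMSO final). Mixture: 50 nM biotin-GRIP1 peptide, 30 nM 7-β-hydroxycholesterol agonist, 5 nM recombinant 6×His:Flag human RORγ-LBD (aa 262-518), 50 mM HEPES pH 7.4.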
Background: Bead proximity is the source of the signal in Alpha formats.

Each structure is given as a SMILES string.

`CC1(CN(CC(=O)c2c(Cl)cccc2Cl)C(=O)c2cnn([C@H]3CC[C@](C)(C(=O)O)CC3)c2C(F)(F)F)CCC1` [Example 760, trans-4-(4-((2-(2,6-dichlorophenyl)-2-oxoethyl)((1-methylcyclobutyl)methyl)carbamoyl)-5-(trifluoromethyl)-1H-pyrazol-1-yl)-1-methylcyclohexanecarboxylic acid]: the IC50 is 2.4 nM.

For `Cc1cc(Cl)c(C(=O)CN(Cc2cc(F)cc(F)c2)C(=O)c2cnn([C@H]3CC[C@@H](C(=O)O)CC3)c2C(F)(F)F)c(Cl)n1` [Example 761, cis-4-(4-((2-(2,4-dichloro-6-methyl-3-pyridinyl)-2-oxoethyl)(3,5-difluorobenzyl)carbamoyl)-5-(trifluoromethyl)-1H-pyrazol-1-yl)cyclohexanecarboxylic acid], the IC50 was 7.94 nM.

Regarding `Cc1cc(Cl)c(C(=O)CN(Cc2cc(F)cc(F)c2)C(=O)c2cnn([C@H]3CC[C@@](C)(C(=O)O)CC3)c2C(F)(F)F)c(Cl)n1` [Example 762, trans-4-(4-((2-(2,4-dichloro-6-methyl-3-pyridinyl)-2-oxoethyl)(3,5-difluorobenzyl)carbamoyl)-5-(trifluoromethyl)-1H-pyrazol-1-yl)-1-methylcyclohexanecarboxylic acid], the IC50 is 5.37 nM.

Turning to `CC1(C)[C@@H]2C[C@H](N(CC(=O)c3c(Cl)ccc(F)c3Cl)C(=O)c3cnn([C@H]4CC[C@](C)(C(=O)O)CC4)c3C(F)(F)F)C[C@@H]21` [Example 763, trans-4-(4-((2-(2,6-dichloro-3-fluorophenyl)-2-oxoethyl)((1R,3r,5S)-6,6-dimethylbicyclo[3.1.0]hex-3-yl)carbamoyl)-5-(trifluoromethyl)-1H-pyrazol-1-yl)-1-methylcyclohexanecarboxylic acid], the IC50 is 1.62 nM.

For `CC(C)(C)CN(CC(=O)c1c(Cl)ccc(F)c1Cl)C(=O)c1cnn([C@H]2CC[C@](C)(C(=O)O)CC2)c1C(F)(F)F` [Example 764, trans-4-(4-((2-(2,6-dichloro-3-fluorophenyl)-2-oxoethyl)(2,2-dimethylpropyl)carbamoyl)-5-(trifluoromethyl)-1H-pyrazol-1-yl)-1-methylcyclohexanecarboxylic acid], the IC50 is 4.37 nM.

For `CC(C)CCN(CC(=O)c1c(Cl)cncc1Cl)C(=O)c1cnn([C@H]2C[C@@H]3[C@H](C2)[C@@H]3C(=O)O)c1C(F)(F)F` [Example 765, (1R,3r,5S,6r)-3-(4-((2-(3,5-dichloro-4-pyridinyl)-2-oxoethyl)(3-methylbutyl)carbamoyl)-5-(trifluoromethyl)-1H-pyrazol-1-yl)bicyclo[3.1.0]hexane-6-carboxylic acid], the IC50 was 245 nM.

Turning to `C[C@@H]1C[C@@H](n2ncc(C(=O)N(CCC(F)(F)F)CC(=O)c3c(Cl)cncc3Cl)c2C(F)(F)F)CC[C@@H]1C(=O)O` [Example 766, (1S,2R,4S)-4-(4-((2-(3,5-dichloro-4-pyridinyl)-2-oxoethyl)(3,3,3-trifluoropropyl)carbamoyl)-5-(trifluoromethyl)-1H-pyrazol-1-yl)-2-methylcyclohexanecarboxylic acid], the IC50 was 32.4 nM.

For the molecule `C[C@H]1C[C@H](n2ncc(C(=O)N(CCC(F)(F)F)CC(=O)c3c(Cl)cncc3Cl)c2C(F)(F)F)CC[C@H]1C(=O)O` [Example 767, (1R,2S,4R)-4-(4-((2-(3,5-dichloro-4-pyridinyl)-2-oxoethyl)(3,3,3-trifluoropropyl)carbamoyl)-5-(trifluoromethyl)-1H-pyrazol-1-yl)-2-methylcyclohexanecarboxylic acid], the IC50 is 372 nM.

As for `Cc1ncc(Cl)c(C(=O)CN(Cc2cc(F)cc(F)c2)C(=O)c2cnn([C@H]3CC[C@](C)(C(=O)O)CC3)c2C(F)(F)F)c1Cl` [Example 768, trans-4-(4-((2-(3,5-dichloro-2-methyl-4-pyridinyl)-2-oxoethyl)(3,5-difluorobenzyl)carbamoyl)-5-(trifluoromethyl)-1H-pyrazol-1-yl)-1-methylcyclohexanecarboxylic acid], the IC50 was 3.98 nM.

Take `O=C(CN(CC1(F)CCCC1)C(=O)c1cnn([C@H]2C[C@@H]3[C@H](C2)[C@@H]3C(=O)O)c1C(F)(F)F)c1c(Cl)cccc1Cl` [Example 769, (1R,3r,5S,6s)-3-(4-((2-(2,6-dichlorophenyl)-2-oxoethyl)((1-fluorocyclopentyl)methyl)carbamoyl)-5-(trifluoromethyl)-1H-pyrazol-1-yl)bicyclo[3.1.0]hexane-6-carboxylic acid]: the IC50 was 18.6 nM.

In the case of `CC(C)(C)CN(CC(=O)c1c(Cl)cncc1Cl)C(=O)c1cnn([C@H]2C[C@@H]3[C@H](C2)[C@@H]3C(=O)O)c1C(F)(F)F` [Example 770, (1R,3r,5S,6s)-3-(4-((2-(3,5-dichloro-4-pyridinyl)-2-oxoethyl)(2,2-dimethylpropyl)carbamoyl)-5-(trifluoromethyl)-1H-pyrazol-1-yl)bicyclo[3.1.0]hexane-6-carboxylic acid], the IC50 was 42.7 nM.

For the molecule `CC(C)(C)CN(CC(=O)c1c(Cl)cncc1Cl)C(=O)c1cnn([C@H]2C[C@]3(C[C@H](C(=O)O)C3)C2)c1C(F)(F)F` (stereo partly drawn) [Example 771, (4r)-6-(4-((2-(3,5-dichloro-4-pyridinyl)-2-oxoethyl)(2,2-dimethylpropyl)carbamoyl)-5-(trifluoromethyl)-1H-pyrazol-1-yl)spiro[3.3]heptane-2-carboxylic acid], the IC50 is 6.31 nM.

With `C[C@H](C(=O)O)[C@H]1C[C@H](n2ncc(C(=O)N(CC(=O)c3c(Cl)cccc3Cl)[C@H]3C[C@@H]4[C@H](C3)C4(C)C)c2C(F)(F)F)C1` [Example 772, (S)-2-((1R,3S)-3-(4-((2-(2,6-dichlorophenyl)-2-oxoethyl)((1R,3r,5S)-6,6-dimethylbicyclo[3.1.0]hexan-3-yl)carbamoyl)-5-(trifluoromethyl)-1H-pyrazol-1-yl)cyclobutyl)propanoic acid], the IC50 was 3.72 nM.

`C[C@@H]1C[C@@H](n2ncc(C(=O)N(CC(=O)c3c(Cl)cncc3Cl)C[C@@H]3CCC(C)(C)O3)c2C(F)(F)F)CC[C@@H]1C(=O)O` [Example 774, (1S,2R,4S)-4-(4-((2-(3,5-dichloro-4-pyridinyl)-2-oxoethyl)(((2S)-5,5-dimethyltetrahydro-2-furanyl)methyl)carbamoyl)-5-(trifluoromethyl)-1H-pyrazol-1-yl)-2-methylcyclohexanecarboxylic acid]: the IC50 is 21.9 nM.

As to `CC1(CN(CC(=O)c2c(Cl)cncc2Cl)C(=O)c2cnn([C@H]3CC[C@H](CC(=O)O)CC3)c2C(F)(F)F)CCC1` [Example 775, (trans-4-(4-((2-(3,5-dichloro-4-pyridinyl)-2-oxoethyl)((1-methylcyclobutyl)methyl)carbamoyl)-5-(trifluoromethyl)-1H-pyrazol-1-yl)cyclohexyl)acetic acid], the IC50 is 3.02 nM.

Turning to `C[C@]1(C(=O)O)CC[C@H](n2ncc(C(=O)N(CCC3CC3)CC(=O)c3c(Cl)cncc3Cl)c2C(F)(F)F)CC1` [Example 776, trans-4-(4-((2-cyclopropylethyl)(2-(3,5-dichloro-4-pyridinyl)-2-oxoethyl)carbamoyl)-5-(trifluoromethyl)-1H-pyrazol-1-yl)-1-methylcyclohexanecarboxylic acid], the IC50 was 21.9 nM.

Consider `Cc1cc(Cl)c(C(=O)CN(CCC2CC2)C(=O)c2cnn([C@H]3CC[C@](C)(C(=O)O)CC3)c2C(F)(F)F)c(Cl)c1` [Example 777, trans-4-(4-((2-cyclopropylethyl)(2-(2,6-dichloro-4-methylphenyl)-2-oxoethyl)carbamoyl)-5-(trifluoromethyl)-1H-pyrazol-1-yl)-1-methylcyclohexanecarboxylic acid], for which the IC50 was 4.27 nM.

For `Cc1cc(F)c(C(=O)CN(CC2(C)CCC2)C(=O)c2cnn([C@H]3CC[C@](C)(C(=O)O)CC3)c2C(F)(F)F)c(Cl)c1` [Example 778, trans-4-(4-((2-(2-chloro-6-fluoro-4-methylphenyl)-2-oxoethyl)((1-methylcyclobutyl)methyl)carbamoyl)-5-(trifluoromethyl)-1H-pyrazol-1-yl)-1-methylcyclohexanecarboxylic acid], the IC50 is 4.47 nM.

For `Cc1cc(Cl)c(C(=O)CN(CCOC(C)(C)C)C(=O)c2cnn([C@H]3CC[C@](C)(C(=O)O)CC3)c2C(F)(F)F)c(Cl)n1` [Example 779, trans-4-(4-((2-(2,4-dichloro-6-methyl-3-pyridinyl)-2-oxoethyl)(2-((2-methyl-2-propanyl)oxy)ethyl)carbamoyl)-5-(trifluoromethyl)-1H-pyrazol-1-yl)-1-methylcyclohexanecarboxylic acid], the IC50 was 18.2 nM.

`C[C@H](C(=O)O)[C@H]1CC[C@H](n2ncc(C(=O)N(CC(=O)c3c(Cl)cncc3Cl)Cc3cc(F)cc(F)c3)c2C(F)(F)F)CC1` [Example 780, 2-(trans-4-(4-((2-(3,5-dichloro-4-pyridinyl)-2-oxoethyl)(3,5-difluorobenzyl)carbamoyl)-5-(trifluoromethyl)-1H-pyrazol-1-yl)cyclohexyl)propanoic acid]: the IC50 is 7.59 nM.

`C[C@@H]1C[C@@H](n2ncc(C(=O)N(CC(=O)c3c(Cl)cccc3Cl)CC3(C)CCC3)c2C(F)(F)F)CC[C@@H]1C(=O)O` [Example 781, (1S,2R,4S)-4-(4-((2-(2,6-dichlorophenyl)-2-oxoethyl)((1-methylcyclobutyl)methyl)carbamoyl)-5-(trifluoromethyl)-1H-pyrazol-1-yl)-2-methylcyclohexanecarboxylic acid]: the IC50 was 1.55 nM.
